Assay results taken from PMC12543283, “TastepepAI: An artificial intelligence platform for taste peptide de novo design” (PLOS Computational Biology, 2025).
Ends that are not written are not given here.

Key:
[1] = system: human bronchial epithelial cells (BEAS-2B)
[2] = system: human umbilical vein endothelial cells (HUVEC)
[3] = system: human embryonic kidney cells (HEK293T)
Description: The cytotoxicity of 73 synthetic peptides was evaluated using four human cell lines: human pancreatic ductal epithelial cells (HPNE), human embryonic kidney cells (HEK293T), human umbilical vein endothelial cells (HUVEC), and human bronchial epithelial cells (BEAS-2B). When cell density reached 70% confluence, the complete culture medium was replaced with serum-free maintenance medium, and peptides were added at a final concentration of 100 μM for 36 h. Control groups received only serum-free maintenance medium without peptides. Cell proliferation was assessed using the CCK-8 assay kit (Solarbio, CA1210) according to the manufacturer’s instructions.

[4] = Electronic tongue analysis (Taste-Sensing System SA 402B); parameters: unit not given here; settings: reference solution 30 mM KCl + 0.3 mM tartaric acid as baseline, first measurement excluded; for Umami: sensor AAE; for Umami / Bitter / Sweet: detection threshold 0, room temperature; for Umami / Bitter / Sour / Salty: four replicates; for Sour: detection threshold -13, room temperature; for Salty: detection threshold -6, room temperature; for Sweet: measured five times
Description: Taste characteristics were analyzed using the electronic tongue system E-tongue (Taste-Sensing System SA 402B, Intelligent Sensor Technology Co. Ltd., Japan). The system was equipped with five specific sensor probes for detecting sourness (CA0), saltiness (CT0), bitterness (C00), sweetness (GL1), and umami (AAE). Samples were tested at concentrations of 0.1 mg/mL and 1.0 mg/mL. Prior to experiments, sensors were activated by immersion in a reference solution (30 mM KCl and 0.3 mM tartaric acid) for 24 h. A 30 min self-diagnostic procedure was performed before each measurement to ensure data accuracy. The reference solution served both as a cleaning solution and standard solution for taste signal calibration. According to the manufacturer’s instructions, using the reference solution as baseline, the detection thresholds were set at −13 for sourness, −6 for saltiness, and 0 for other taste modalities. Two cleaning solutions were employed for electrode maintenance: (1) 30% ethanol solution containing 100 mM HCl for negative charge reference electrodes, and (2) 30% ethanol solution containing 100 mM KCl and 10 mM KOH for positive charge reference electrodes. All taste measurements were performed at room temperature with four replicates, except for sweetness which was measured five times. The first measurement data were excluded from analysis.

[5] = system: human pancreatic ductal epithelial cells (HPNE)

| Substance | Average cell viability, BEAS-2B [1] | Cell viability, BEAS-2B, Data1 [1] | Cell viability, BEAS-2B, Data2 [1] | Cell viability, BEAS-2B, Data3 [1] | Average cell viability, HUVEC [2] | Cell viability, HUVEC, Data1 [2] | Cell viability, HUVEC, Data2 [2] | Cell viability, HUVEC, Data3 [2] | Average cell viability, HEK293T [3] | Cell viability, HEK293T, Data1 [3] | Cell viability, HEK293T, Data2 [3] | Cell viability, HEK293T, Data3 [3] | Umami ([4]; peptide 0.1 mg/mL) | Umami ([4]; peptide 1 mg/mL) | Bitter ([4]; sensor C00, peptide 0.1 mg/mL) | Bitter ([4]; sensor C00, peptide 1 mg/mL) | Sour ([4]; sensor CA0, peptide 0.1 mg/mL) | Sour ([4]; sensor CA0, peptide 1 mg/mL) | Salty ([4]; sensor CT0, peptide 0.1 mg/mL) | Salty ([4]; sensor CT0, peptide 1 mg/mL) | also measured |
| --- | --- | --- | --- | --- | --- | --- | --- | --- | --- | --- | --- | --- | --- | --- | --- | --- | --- | --- | --- | --- | --- |
| EFPEQN [TaPep17] | 109.94 | 112.36 | 107.58 | 109.87 | 96.70 | 94.76 | 94.12 | 101.22 | 98.68 | 94.45 | 102.97 | 98.61 | 1.17 | -5.94 | 7.25 | 3.52 | -2.22 | 14.54 | -21.65 | -0.53 | Sweet ([4]; sensor GL1, peptide 0.1 mg/mL): 5.23; Sweet ([4]; sensor GL1, peptide 1 mg/mL): -5.15; Average cell viability, HPNE [5]: 92.31; Cell viability, HPNE, Data1 [5]: 86.66; Cell viability, HPNE, Data2 [5]: 92.25; Cell viability, HPNE, Data3 [5]: 98.04 |
| EKGVQ [TaPep64] | 103.99 | 103.09 | 103.59 | 105.28 | 104.98 | 101.54 | 110.56 | 102.82 | 103.19 | 103.53 | 102.87 | 103.15 | 1.91 | -4.02 | 7.39 | 3.04 | -4.25 | 9.90 | -21.79 | 10.50 | Sweet ([4]; sensor GL1, peptide 0.1 mg/mL): 4.85; Sweet ([4]; sensor GL1, peptide 1 mg/mL): -4.54; Average cell viability, HPNE [5]: 98.34; Cell viability, HPNE, Data1 [5]: 89.85; Cell viability, HPNE, Data2 [5]: 95.04; Cell viability, HPNE, Data3 [5]: 110.12 |
| EPKVLV [TaPep54] | 102.43 | 95.01 | 108.18 | 104.09 | 110.64 | 113.84 | 114.72 | 103.38 | 102.24 | 103.15 | 102.49 | 101.07 | 3.06 | -3.47 | 7.63 | 2.50 | -7.11 | 8.51 | -20.20 | 10.59 | Sweet ([4]; sensor GL1, peptide 0.1 mg/mL): 9.28; Sweet ([4]; sensor GL1, peptide 1 mg/mL): -6.29; Average cell viability, HPNE [5]: 100.23; Cell viability, HPNE, Data1 [5]: 115.91; Cell viability, HPNE, Data2 [5]: 95.44; Cell viability, HPNE, Data3 [5]: 89.35 |
| EQGEQN [TaPep15] | 103.09 | 105.68 | 95.51 | 108.08 | 100.56 | 103.30 | 104.26 | 94.12 | 92.65 | 98.80 | 86.59 | 92.56 | 3.17 | -3.63 | 6.27 | 4.11 | -7.15 | 8.97 | -23.91 | 2.97 | Sweet ([4]; sensor GL1, peptide 0.1 mg/mL): 9.72; Sweet ([4]; sensor GL1, peptide 1 mg/mL): -3.92; Average cell viability, HPNE [5]: 101.30; Cell viability, HPNE, Data1 [5]: 84.06; Cell viability, HPNE, Data2 [5]: 112.61; Cell viability, HPNE, Data3 [5]: 107.22 |
| EQPLQA [TaPep21] | 98.84 | 92.62 | 108.57 | 95.31 | 102.16 | 96.59 | 98.43 | 111.44 | 97.76 | 94.35 | 95.58 | 103.34 | 0.99 | -5.14 | 7.83 | 3.66 | -1.59 | 12.04 | -19.46 | 7.62 | Sweet ([4]; sensor GL1, peptide 0.1 mg/mL): 5.53; Sweet ([4]; sensor GL1, peptide 1 mg/mL): -10.15; Average cell viability, HPNE [5]: 98.70; Cell viability, HPNE, Data1 [5]: 92.25; Cell viability, HPNE, Data2 [5]: 87.35; Cell viability, HPNE, Data3 [5]: 116.51 |
| ESKDQ [TaPep55] | 109.14 | 112.96 | 98.40 | 116.05 | 102.82 | 107.29 | 96.11 | 105.06 | 98.14 | 94.73 | 101.07 | 98.61 | 1.27 | -4.53 | 7.76 | 2.75 | -2.34 | 11.12 | -19.80 | 11.30 | Sweet ([4]; sensor GL1, peptide 0.1 mg/mL): 5.21; Sweet ([4]; sensor GL1, peptide 1 mg/mL): -7.81; Average cell viability, HPNE [5]: 94.61; Cell viability, HPNE, Data1 [5]: 105.92; Cell viability, HPNE, Data2 [5]: 82.36; Cell viability, HPNE, Data3 [5]: 95.54 |
| EVGMQE [TaPep56] | 108.94 | 97.91 | 109.67 | 119.24 | 106.36 | 96.04 | 108.89 | 114.16 | 101.26 | 104.86 | 101.55 | 97.38 | 2.28 | -4.04 | 7.18 | 3.33 | -4.96 | 9.59 | -21.19 | 6.57 | Sweet ([4]; sensor GL1, peptide 0.1 mg/mL): 7.84; Sweet ([4]; sensor GL1, peptide 1 mg/mL): -7.49; Average cell viability, HPNE [5]: 104.53; Cell viability, HPNE, Data1 [5]: 109.42; Cell viability, HPNE, Data2 [5]: 91.95; Cell viability, HPNE, Data3 [5]: 112.21 |
| FEGDQDA [TaPep18] | 104.49 | 109.67 | 103.49 | 100.30 | 104.36 | 97.71 | 114.64 | 100.75 | 103.66 | 104.57 | 105.99 | 100.41 | 1.84 | -5.33 | 6.92 | 3.77 | -3.88 | 13.35 | -22.88 | 7.99 | Sweet ([4]; sensor GL1, peptide 0.1 mg/mL): 5.97; Sweet ([4]; sensor GL1, peptide 1 mg/mL): -5.91; Average cell viability, HPNE [5]: 102.53; Cell viability, HPNE, Data1 [5]: 116.21; Cell viability, HPNE, Data2 [5]: 89.05; Cell viability, HPNE, Data3 [5]: 102.33 |
